Key:
[1] = target: T1, TBK1 (Homo sapiens, UniProt Q9UHD2); assay: Inhibition of TBK1 in Cells (TLR3 driven ISRE β-lactamase reporter assay); type: cell-based; conditions: poly IC-LMW stimulation 16 hrs; -log(EC50), EC50 molar; read-out: Inhibition of TBK1 in cells pEC50 (EC) (converted)
T1 construct: host or cells: RA1-ISRE beta-lactamase reporter cells
T1 sequence (Q9UHD2 1-729): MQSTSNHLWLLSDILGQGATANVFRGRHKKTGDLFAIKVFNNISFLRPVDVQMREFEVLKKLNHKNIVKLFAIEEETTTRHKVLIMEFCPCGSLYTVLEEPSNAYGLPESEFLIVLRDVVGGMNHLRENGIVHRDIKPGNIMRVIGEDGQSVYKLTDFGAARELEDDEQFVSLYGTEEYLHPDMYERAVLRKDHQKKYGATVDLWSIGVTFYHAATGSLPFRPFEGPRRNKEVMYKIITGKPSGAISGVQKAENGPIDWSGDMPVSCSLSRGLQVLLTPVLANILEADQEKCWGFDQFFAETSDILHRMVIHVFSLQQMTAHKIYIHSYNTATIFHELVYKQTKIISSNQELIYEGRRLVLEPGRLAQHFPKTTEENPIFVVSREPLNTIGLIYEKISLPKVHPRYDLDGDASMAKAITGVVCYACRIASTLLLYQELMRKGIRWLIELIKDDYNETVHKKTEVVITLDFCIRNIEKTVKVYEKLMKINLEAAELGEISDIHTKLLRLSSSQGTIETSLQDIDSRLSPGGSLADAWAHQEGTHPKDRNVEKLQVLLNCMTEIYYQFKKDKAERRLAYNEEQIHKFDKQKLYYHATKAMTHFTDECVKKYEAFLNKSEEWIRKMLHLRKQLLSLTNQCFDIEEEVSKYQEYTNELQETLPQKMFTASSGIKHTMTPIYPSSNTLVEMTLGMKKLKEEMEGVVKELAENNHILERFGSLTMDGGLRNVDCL
Experimental: TBK1 inhibition is determined using a TLR3 driven RA1-ISRE β-lacatamase reporter assay (Life Technologies). In the assay 50,000 cells/well are plated in black clear bottom 384 well plate. Each test compound is prepared in DMSO using 2.5-fold serial dilutions for 11 data points, which are then added to the media. Cells are stimulated with 0.15 mg/ml poly IC-LMW (Invivogen) for 16 hrs. Reporter activity is detected using the LiveBLAzer-FRET B/G CCF4-AM substrate (Life Technologies) and the plate is read using the Spectramax M5 instrument. Corresponding EC50 values are calculated by non-linear curve fitting of the compound concentrations and percent of inhibition to the standard EC50 equation and reported as pEC50, i.e., −log(EC50), where EC50 is the molar concentration.

[2] = target: T2, Full length human TBK1 (Homo sapiens, UniProt Q9UHD2); assay: Inhibition of TBK1 Enzyme (Caliper microfluidic assay); type: biochemical; conditions: 25 μM ATP, 60 min at RT; -log(IC50), IC50 molar; read-out: TBK1 Inhibition (pIC50) (converted)
T2 construct: Full length human TBK1 with an N-terminal His-tag; His-tag (N); made in house; host or cells: Sf9 insect cells (baculovirus, pFastBac1)
T2 sequence (Q9UHD2 1-729): T1 sequence (Q9UHD2 1-729)
Experimental: Full length human TBK1 with an N-terminal His-tag was cloned into the pFastBacl vector and was transfected into Sf9 cells. 72 hours later the virus was harvested and amplified through two additional rounds of infections. Then 400 ml of the resulting virus stock was used to infect 10L of Sf9 cells at a density of 2×10^6 cells/ml. Cell pellets were harvested 48 hours post infection and were lysed by freeze-thaw, homogenization and sonication in binding buffer (25 mM Tris pH7.6, 1 M NaCl, 10 mM imidazole, 0.5 mM TCEP) plus 0.1% Triton X-100 and complete protease inhibitor cocktail. The lysate was spun and the supernatant was purified with a HisTrap FF crude and a Superdex 200 pg column.
TBK1 inhibition is determined using a 384 well plate format in buffer containing 20 mM Hepes, pH 7.4, 10 mM MgCl2, 1 mM EDTA, 0.01% Brij-L23, 1 mM DTT. Each test compound is prepared in DMSO using 2.5-fold serial dilutions for 11 data points, which are added to the buffer so that each dilution contains 1% DMSO. To each well is added 2 μL of 1 μm 5FAM-DRHDSGLDSMKDE-NH2 (in buffer), 2 μL of diluted test compound (1% DMSO in buffer), and 5 μL of 3 nM TBK1 and 25 μM ATP (in buffer). The reaction mixture is incubated at RT for 60 min, and quenched by adding 20 mM Hepes, pH 7.4, 10 mM MgCl2, 1 mM EDTA, 0.01% Brij-L23, 1 mM DTT+25 mM EDTA. To quantify the fluorescent-labeled substrate and product following reaction, the test plate is loaded on a Caliper LC-3000, which measures percent of conversion by microfluidic-based separation. Corresponding IC50 values are calculated by non-linear curve fitting of the compound concentrations and percent of inhibition to the standard IC50 equation and reported as pIC50, i.e., −log(IC50), where IC50 is the molar concentration.

| SMILES | EC50 [1] [µM] | IC50 [2] [µM] |
| --- | --- | --- |
| O=C(NCC(F)(F)F)c1ccn(-c2ccc3nc(NC(=O)C4CC4)cn3c2)n1 [Example 34, 1-(2-(cyclopropanecarboxamido)imidazo[1,2-a]pyridin-6-yl)-N-(2,2,2-trifluoroethyl)-1H-pyrazole-3-carboxamide] | 0.513 | 0.02 |
| O=C(NCC(F)F)c1ccn(-c2ccc3nc(NC(=O)C4CC4)cn3c2)n1 [Example 35, 1-(2-(cyclopropanecarboxamido)imidazo[1,2-a]pyridin-6-yl)-N-(2,2-difluoroethyl)-1H-pyrazole-3-carboxamide] | 5.25 | 0.0794 |
| O=C(NCC(F)(F)F)c1ccn(-c2cn3cc(NC(=O)C4CC4)nc3cn2)n1 [Example 36, 1-(2-(cyclopropanecarboxamido)imidazo[1,2-a]pyrazin-6-yl)-N-(2,2,2-trifluoroethyl)-1H-pyrazole-3-carboxamide] | 0.245 | 0.01 |
| O=C(NCC(F)F)c1ccn(-c2cn3cc(NC(=O)C4CC4)nc3cn2)n1 [Example 38, 1-(2-(cyclopropanecarboxamido)imidazo[1,2-a]pyrazin-6-yl)-N-(2,2-difluoroethyl)-1H-pyrazole-3-carboxamide] | 1.17 | 0.0251 |
| O=C(NCC(F)(F)F)c1ccn(-c2ccc3nc(NC(=O)C4CC4)cn3n2)n1 [Example 39, 1-(2-(cyclopropanecarboxamido)imidazo[1,2-b]pyridazin-6-yl)-N-(2,2,2-trifluoroethyl)-1H-pyrazole-3-carboxamide] | > 50.1 | 0.251 |
| O=C(NCC(F)(F)F)c1cnn(-c2ccc3nc(NC(=O)C4CC4)cn3c2)c1 [Example 40, 1-(2-(cyclopropanecarboxamido)imidazo[1,2-a]pyridin-6-yl)-N-(2,2,2-trifluoroethyl)-1H-pyrazole-4-carboxamide] | 0.708 | 0.0316 |
| CC(F)(F)CNC(=O)c1cn(-c2ccc3nc(NC(=O)C4CC4)cn3c2)cn1 [Example 42, 1-(2-(cyclopropanecarboxamido)imidazo[1,2-a]pyridin-6-yl)-N-(2,2-difluoropropyl)-1H-imidazole-4-carboxamide] | 5.13 | 0.1 |
| C[C@@H](NC(=O)c1cn(-c2ccc3nc(NC(=O)C4CC4)cn3c2)cn1)C(F)(F)F [Example 43] | 2.34 | 0.0501 |
| O=C(NCC(F)(F)F)c1cc(-c2ccc3nc(NC(=O)C4CC4)cn3n2)cs1 [Example 44, 4-(2-(cyclopropanecarboxamido)imidazo[1,2-b]pyridazin-6-yl)-N-(2,2,2-trifluoroethyl)thiophene-2-carboxamide] | 0.214 | 0.00398 |
| O=C(NCC(F)(F)F)c1ncc(-c2ccc3nc(NC(=O)C4CC4)cn3c2)[nH]1 [Example 50, 4-(2-(cyclopropanecarboxamido)imidazo[1,2-a]pyridin-6-yl)-N-(2,2,2-trifluoroethyl)-1H-imidazole-2-carboxamide] | 0.479 | 0.0126 |

More lines, now with the values ahead:

| EC50 [1] [µM] | IC50 [2] [µM] | SMILES |
| --- | --- | --- |
| 0.49 | 0.00794 | O=C(NCC(F)(F)F)c1cc(-c2ccc3nc(NC(=O)C4CC4)cn3c2)[nH]n1 [Example 51, 5-(2-(cyclopropanecarboxamido)imidazo[1,2-a]pyridin-6-yl)-N-(2,2,2-trifluoroethyl)-1H-pyrazole-3-carboxamide] |
| 0.148 | 0.00631 | O=C(Nc1cn2cc(-c3cc(C(=O)N4CCC[C@@H]4C(F)(F)F)n[nH]3)ccc2n1)C1CC1 [Example 52, (R)-N-(6-(3-(2-(trifluoromethyl)pyrrolidine-1-carbonyl)-1H-pyrazol-5-yl)imidazo[1,2-a]pyridin-2-yl)cyclopropanecarboxamide] |
| 25.1 | 0.158 | O=C(N[C@H]1CCOC1)c1cc(-c2ccc3nc(NC(=O)C4CC4)cn3c2)[nH]n1 [Example 53, (S)-5-(2-(cyclopropanecarboxamido)imidazo[1,2-a]pyridin-6-yl)-N-(tetrahydrofuran-3-yl)-1H-pyrazole-3-carboxamide] |
| 20 | 0.251 | O=C(Nc1cn2cc(-c3csc(C(=O)N4CCOCC4)c3)ccc2n1)C1CC1 [Example 54, N-{6-[5-(morpholine-4-carbonyl)thiophen-3-yl]imidazo[1,2-a]pyridin-2-yl}cyclopropanecarboxamide] |
| 0.275 | 0.00631 | O=C(NCC(F)F)c1cc(-c2ccc3nc(NC(=O)C4CC4)cn3c2)cs1 [Example 55, 4-(2-(cyclopropanecarboxamido)imidazo[1,2-a]pyridin-6-yl)-N-(2,2-difluoroethyl)thiophene-2-carboxamide] |
| 0.631 | 0.0251 | CC(C)(NC(=O)c1cc(-c2ccc3nc(NC(=O)C4CC4)cn3c2)cs1)C(F)(F)F [Example 56, 4-(2-(cyclopropanecarboxamido)imidazo[1,2-a]pyridin-6-yl)-N-(1,1,1-trifluoro-2-methylpropan-2-yl)thiophene-2-carboxamide] |
| 0.219 | 0.01 | CC(F)(F)CNC(=O)c1cc(-c2ccc3nc(NC(=O)C4CC4)cn3c2)cs1 [Example 57, 4-(2-(cyclopropanecarboxamido)imidazo[1,2-a]pyridin-6-yl)-N-(2,2-difluoropropyl)thiophene-2-carboxamide] |
| 0.24 | 0.02 | CC(NC(=O)c1cc(-c2ccc3nc(NC(=O)C4CC4)cn3c2)cs1)C(F)(F)F (stereo not shown) [Example 59, 4-(2-(cyclopropanecarboxamido)imidazo[1,2-a]pyridin-6-yl)-N-(1,1,1-trifluoropropan-2-yl)thiophene-2-carboxamide] |
| 0.234 | 0.0158 | O=C(Nc1cn2cc(-c3csc(C(=O)N4CCCC4C(F)(F)F)c3)ccc2n1)C1CC1 (stereo not shown) [Example 60, N-(6-(5-(2-(trifluoromethyl)pyrrolidine-1-carbonyl)thiophen-3-yl)imidazo[1,2-a]pyridin-2-yl)cyclopropanecarboxamide] |
| 2.63 | 0.0398 | O=C(Nc1cn2cc(-c3csc(C(=O)N4CCC[C@H]4C(F)(F)F)c3)ccc2n1)C1CC1 [Example 61, (S)-N-(6-(5-(2-(trifluoromethyl)pyrrolidine-1-carbonyl)thiophen-3-yl)imidazo[1,2-a]pyridin-2-yl)cyclopropanecarboxamide] |
| 0.0741 | 0.00398 | O=C(Nc1cn2cc(-c3csc(C(=O)N4CCC[C@@H]4C(F)(F)F)c3)ccc2n1)C1CC1 [Example 62, (R)-N-(6-(5-(2-(trifluoromethyl)pyrrolidine-1-carbonyl)thiophen-3-yl)imidazo[1,2-a]pyridin-2-yl)cyclopropanecarboxamide] |
| 0.372 | 0.0158 | CC(C)CNC(=O)c1cc(-c2ccc3nc(NC(=O)C4CC4)cn3c2)cs1 [Example 63, 4-(2-(cyclopropanecarboxamido)imidazo[1,2-a]pyridin-6-yl)-N-isobutylthiophene-2-carboxamide] |
| 0.676 | 0.02 | O=C(NCC1CC1)c1cc(-c2ccc3nc(NC(=O)C4CC4)cn3c2)cs1 [Example 65] |

— patent US9598424B2 (Takeda Pharmaceutical Company Limited, priority 2014, dated 2017)
